Data: ChEMBL document CHEMBL4673260, “Pyridine alkaloids with activity in the central nervous system” (Bioorg Med Chem, 2020)

How the values were obtained:
[1] = biological target: T1, Neuronal acetylcholine receptor subunit alpha-7 (Rattus norvegicus, UniProt Q05941); assay: Displacement of 125I-alpha-bungarotoxin from rat brain alpha7 nAChR by radioligand binding assay
[2] = biological target: T1, Neuronal acetylcholine receptor subunit alpha-7; assay: Agonist activity at rat brain alpha7 nAChR
[3] = Toxicity in iv dosed Swiss-Webster mouse by up-and-down method; format: organism-based; conditions: in vivo
[4] = test system: PC-12; assay: Induction of neurite outgrowth in rat PC-12 cells at 33 uM incubated for 24 hrs by phase contrast microscopic analysis relative to control; format: functional
[5] = test system: PC-12; assay: Induction of neurite outgrowth in rat PC-12 cells at 10 uM incubated for 24 hrs by phase contrast microscopic analysis relative to control; format: functional
[6] = test system: PC-12; assay: Induction of neurite outgrowth in rat PC-12 cells at 3.3 uM incubated for 24 hrs by phase contrast microscopic analysis relative to control; format: functional
[7] = biological target: T2, Dopamine beta-hydroxylase (Bos taurus) (UniProt P15101); assay: Inhibition of bovine adrenal medulla DBH at 5 uM relative to control
T2 sequence (whole entry): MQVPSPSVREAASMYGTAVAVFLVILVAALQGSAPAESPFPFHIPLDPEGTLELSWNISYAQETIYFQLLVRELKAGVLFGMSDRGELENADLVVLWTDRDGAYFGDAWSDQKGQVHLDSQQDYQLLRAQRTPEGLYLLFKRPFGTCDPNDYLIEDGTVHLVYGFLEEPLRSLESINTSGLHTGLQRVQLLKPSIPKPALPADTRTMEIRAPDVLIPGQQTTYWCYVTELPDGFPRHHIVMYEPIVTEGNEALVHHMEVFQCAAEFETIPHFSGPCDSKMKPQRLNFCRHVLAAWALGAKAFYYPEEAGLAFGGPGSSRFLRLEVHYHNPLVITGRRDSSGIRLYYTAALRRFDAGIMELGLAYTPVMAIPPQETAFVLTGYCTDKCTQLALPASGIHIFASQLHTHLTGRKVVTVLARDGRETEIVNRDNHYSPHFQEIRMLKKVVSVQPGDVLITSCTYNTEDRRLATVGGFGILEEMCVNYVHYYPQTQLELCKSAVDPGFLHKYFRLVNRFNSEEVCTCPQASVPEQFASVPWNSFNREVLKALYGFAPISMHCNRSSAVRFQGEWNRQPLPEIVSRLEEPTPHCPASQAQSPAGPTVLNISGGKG

[8] = biological target: T2, Dopamine beta-hydroxylase (Bos taurus); assay: Inhibition of bovine adrenal medulla DBH at 0.5 uM relative to control
[9] = biological target: Acetylcholinesterase (Electrophorus electricus) (UniProt O42275); assay: Inhibition of electric eel acetylcholinesterase using acetylthiocholine iodide as substrate by Ellman's method relative to control; conditions: concentration not given here
Acetylcholinesterase (Electrophorus electricus), sequence (O42275 24-633 limits assumed): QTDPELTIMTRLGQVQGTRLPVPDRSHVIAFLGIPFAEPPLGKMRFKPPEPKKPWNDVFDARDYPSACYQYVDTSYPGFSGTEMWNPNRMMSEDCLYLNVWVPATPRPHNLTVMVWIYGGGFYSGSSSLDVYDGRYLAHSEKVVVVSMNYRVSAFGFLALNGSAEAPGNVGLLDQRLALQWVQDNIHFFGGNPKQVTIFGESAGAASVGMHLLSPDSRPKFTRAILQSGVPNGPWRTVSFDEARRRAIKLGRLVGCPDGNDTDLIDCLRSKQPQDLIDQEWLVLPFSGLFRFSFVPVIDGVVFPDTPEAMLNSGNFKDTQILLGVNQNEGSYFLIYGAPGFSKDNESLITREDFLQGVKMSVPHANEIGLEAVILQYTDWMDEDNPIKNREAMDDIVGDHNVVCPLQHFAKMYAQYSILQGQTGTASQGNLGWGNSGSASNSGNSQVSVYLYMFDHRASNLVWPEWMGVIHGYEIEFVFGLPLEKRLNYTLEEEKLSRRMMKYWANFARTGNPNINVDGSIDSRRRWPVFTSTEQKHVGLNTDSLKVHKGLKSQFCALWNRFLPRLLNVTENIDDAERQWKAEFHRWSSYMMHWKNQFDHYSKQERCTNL

[10] = species on record: Cavia porcellus; assay: Inhibition of voltage-dependent calcium channel mediated calcium influx in guinea-pig ileum assessed as Cacl2 induced maximal smooth muscle contraction at 120 uM incubated for 15 mins relative to control; format: tissue-based
[11] = species on record: Cavia porcellus; assay: Inhibition of voltage-dependent calcium channel mediated calcium influx in guinea-pig ileum assessed as Cacl2 induced maximal smooth muscle contraction at 490 uM incubated for 15 mins relative to control; format: tissue-based
[12] = biological target: Neuronal acetylcholine receptor; alpha4/beta2 (Rattus norvegicus, UniProt P09483+P12390)
Neuronal acetylcholine receptor; alpha4/beta2 (Rattus norvegicus, UniProt P09483+P12390), sequence (P09483 whole entry): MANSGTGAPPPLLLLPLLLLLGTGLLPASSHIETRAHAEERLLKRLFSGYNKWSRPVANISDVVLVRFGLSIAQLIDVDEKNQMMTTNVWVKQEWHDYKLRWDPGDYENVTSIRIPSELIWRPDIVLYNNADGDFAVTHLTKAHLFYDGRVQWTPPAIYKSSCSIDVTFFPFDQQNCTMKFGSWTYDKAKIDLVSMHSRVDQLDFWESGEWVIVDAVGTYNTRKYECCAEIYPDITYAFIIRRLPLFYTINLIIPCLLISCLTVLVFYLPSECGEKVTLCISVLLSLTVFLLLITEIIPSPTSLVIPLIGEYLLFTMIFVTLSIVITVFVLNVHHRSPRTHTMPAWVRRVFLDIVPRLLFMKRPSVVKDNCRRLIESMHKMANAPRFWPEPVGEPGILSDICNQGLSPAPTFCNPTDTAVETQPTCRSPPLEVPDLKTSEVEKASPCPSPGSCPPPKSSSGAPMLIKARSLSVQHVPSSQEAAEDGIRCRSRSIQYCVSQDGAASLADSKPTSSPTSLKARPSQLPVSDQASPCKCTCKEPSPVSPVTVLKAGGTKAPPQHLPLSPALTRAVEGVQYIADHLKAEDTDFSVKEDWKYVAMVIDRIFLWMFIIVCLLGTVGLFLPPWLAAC
Neuronal acetylcholine receptor; alpha4/beta2 (Rattus norvegicus, UniProt P09483+P12390), sequence (P12390 whole entry): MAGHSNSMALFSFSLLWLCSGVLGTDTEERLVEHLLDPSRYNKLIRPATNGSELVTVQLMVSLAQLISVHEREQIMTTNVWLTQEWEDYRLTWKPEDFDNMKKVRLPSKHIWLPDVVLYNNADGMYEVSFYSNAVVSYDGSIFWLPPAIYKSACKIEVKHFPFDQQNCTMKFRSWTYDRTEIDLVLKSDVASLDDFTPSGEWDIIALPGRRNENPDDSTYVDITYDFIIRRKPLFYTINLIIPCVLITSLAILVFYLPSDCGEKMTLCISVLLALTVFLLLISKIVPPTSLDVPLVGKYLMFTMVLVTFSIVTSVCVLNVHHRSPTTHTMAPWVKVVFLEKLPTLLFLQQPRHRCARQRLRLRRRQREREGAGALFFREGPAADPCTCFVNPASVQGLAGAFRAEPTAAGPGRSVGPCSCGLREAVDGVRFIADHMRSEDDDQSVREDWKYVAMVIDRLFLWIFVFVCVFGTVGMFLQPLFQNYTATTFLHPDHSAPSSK

[13] = biological target: T1, Neuronal acetylcholine receptor subunit alpha-7
Description: Displacement of [3H]MLA from rat alpha7 nAChR by liquid scintillation counting

[14] = species on record: Mus musculus; assay: Antipsychotic activity in mouse assessed as reduction in amphetamine-induced toxicity; format: functional; parameters: scale not given: the % may be the effect or the level left
[15] = species on record: Mus musculus; assay: Antipsychotic activity in albino mouse assessed as potentiation of hexobarbital-induced sleeping time; format: functional
[16] = Toxicity in ip dosed albino rat; format: organism-based; conditions: in vivo
[17] = species on record: Rattus norvegicus; assay: Potentiation of morphine-induced analgesia in rat relative to control; format: functional
[18] = species on record: Mus musculus; assay: Antipsychotic activity in trained mouse assessed as reduction in ability of mouse to remain on rotating rod; format: functional
[19] = species on record: Rattus norvegicus; assay: Potentiation of diphenylhydantoin-induced anticonvulsant activity in rat relative to control; format: functional
[20] = species on record: Mus musculus; assay: Antiaggressive activity in mouse assessed as reduction in foot shock induced fighting behavior; format: functional; parameters: scale not given: the % may be the effect or the level left
[21] = test system: Rattus norvegicus; assay: Protection against pentylenetetrazol-induced convulsion in rat at 50 to 100 mg/kg, ip relative to control; format: functional; conditions: dose 50-100 mg/kg
[22] = biological target: Neuronal acetylcholine receptor subunit alpha-7 (Homo sapiens, UniProt P36544); conditions: filed as agonist
Neuronal acetylcholine receptor subunit alpha-7 (Homo sapiens, UniProt P36544), sequence (P36544 whole entry): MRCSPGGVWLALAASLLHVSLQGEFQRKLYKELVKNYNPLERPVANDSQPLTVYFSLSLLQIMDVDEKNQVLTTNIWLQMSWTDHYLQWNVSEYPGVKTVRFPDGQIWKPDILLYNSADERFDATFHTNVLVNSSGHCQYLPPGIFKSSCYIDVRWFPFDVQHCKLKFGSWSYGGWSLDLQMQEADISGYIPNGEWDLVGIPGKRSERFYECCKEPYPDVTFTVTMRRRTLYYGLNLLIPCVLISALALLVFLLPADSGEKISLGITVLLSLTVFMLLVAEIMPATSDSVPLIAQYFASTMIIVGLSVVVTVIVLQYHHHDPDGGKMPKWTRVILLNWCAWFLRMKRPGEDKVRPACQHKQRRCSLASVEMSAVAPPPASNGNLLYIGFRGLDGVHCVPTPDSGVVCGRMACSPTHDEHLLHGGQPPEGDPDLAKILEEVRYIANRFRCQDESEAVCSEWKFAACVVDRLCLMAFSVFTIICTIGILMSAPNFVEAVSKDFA
Description: Agonist activity at human alpha7 nAChR (unknown origin)

[23] = biological target: T3, Muscarinic acetylcholine receptor M1 (Rattus norvegicus) (UniProt P08482); assay: Displacement of [3H]-Pirenzepine from rat cerebral cortex Muscarinic M1 receptor at 10 uM by radioligand binding assay relative to control; conditions: filed as antagonist
T3 sequence (whole entry): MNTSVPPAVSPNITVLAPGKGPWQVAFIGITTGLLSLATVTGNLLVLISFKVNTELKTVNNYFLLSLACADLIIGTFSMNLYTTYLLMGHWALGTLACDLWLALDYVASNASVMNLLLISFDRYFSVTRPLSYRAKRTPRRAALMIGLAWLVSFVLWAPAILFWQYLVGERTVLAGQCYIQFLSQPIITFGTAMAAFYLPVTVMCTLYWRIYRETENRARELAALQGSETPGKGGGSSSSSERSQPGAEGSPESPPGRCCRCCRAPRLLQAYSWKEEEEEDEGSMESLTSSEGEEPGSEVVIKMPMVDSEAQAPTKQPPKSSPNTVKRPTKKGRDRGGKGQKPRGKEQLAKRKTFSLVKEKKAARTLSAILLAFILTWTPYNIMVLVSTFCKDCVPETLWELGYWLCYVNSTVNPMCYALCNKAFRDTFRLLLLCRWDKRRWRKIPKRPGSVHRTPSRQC

[24] = biological target: Neuronal acetylcholine receptor; alpha3/beta4 (Homo sapiens) (UniProt P30926+P32297); assay: Agonist activity at human alpha3beta4 nAChR expressed in mouse/rat hybrid F11 cells assessed as increase in rubidium-86 efflux; format: cell-based; conditions: filed as agonist
[25] = biological target: T3, Muscarinic acetylcholine receptor M1 (Rattus norvegicus); conditions: filed as antagonist, time 40.0 min
[26] = test system: Torpedo; assay: Agonist activity at Torpedo alpha1beta1deltagamma nACHR; conditions: filed as agonist
[27] = biological target: T3, Muscarinic acetylcholine receptor M1 (Rattus norvegicus); conditions: filed as antagonist, time 60.0 min
[28] = biological target: T4, Neuronal acetylcholine receptor; alpha4/beta2 (Homo sapiens, UniProt P17787+P43681); assay: Agonist activity at human alpha4beta2 nAChR expressed in human K177 cell membrane assessed as increase in 86-rubidium efflux incubated for 5 mins by gamma counting method; format: cell membranes; conditions: K177cell line, filed as agonist
[29] = species on record: Rattus norvegicus; assay: Displacement of [3H]-Cytisine from rat cerebral cortex nAChR at 10 uM by radioligand binding assay relative to control; conditions: filed as antagonist
[30] = biological target: Acetylcholinesterase (Electrophorus electricus, UniProt O42275)
Acetylcholinesterase, sequence (O42275 whole entry): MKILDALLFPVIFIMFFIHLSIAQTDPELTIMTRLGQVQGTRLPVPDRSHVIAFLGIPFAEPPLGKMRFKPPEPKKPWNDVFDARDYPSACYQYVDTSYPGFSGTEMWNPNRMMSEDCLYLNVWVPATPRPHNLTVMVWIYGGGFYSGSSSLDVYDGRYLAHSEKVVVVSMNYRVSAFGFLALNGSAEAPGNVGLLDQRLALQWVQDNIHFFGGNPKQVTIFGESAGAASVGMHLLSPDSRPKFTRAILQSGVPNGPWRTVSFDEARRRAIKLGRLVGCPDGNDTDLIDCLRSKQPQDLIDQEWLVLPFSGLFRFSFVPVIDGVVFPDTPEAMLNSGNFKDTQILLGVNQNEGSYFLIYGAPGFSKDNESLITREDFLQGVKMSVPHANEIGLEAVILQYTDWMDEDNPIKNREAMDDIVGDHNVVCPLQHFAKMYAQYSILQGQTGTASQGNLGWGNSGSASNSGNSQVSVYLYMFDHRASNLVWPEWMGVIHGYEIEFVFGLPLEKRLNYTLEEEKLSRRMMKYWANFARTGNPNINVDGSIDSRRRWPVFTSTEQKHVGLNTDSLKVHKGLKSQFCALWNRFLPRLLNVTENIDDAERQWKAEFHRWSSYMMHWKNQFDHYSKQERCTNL

[31] = biological target: T4, Neuronal acetylcholine receptor; alpha4/beta2; assay: Agonist activity at human brain alpha4beta2 nAChR expressed in Xenopus laevis oocytes assessed as peak response relative to acetylcholine response; format: cell-based; conditions: Oocyte

T1 sequence (Q05941 whole entry): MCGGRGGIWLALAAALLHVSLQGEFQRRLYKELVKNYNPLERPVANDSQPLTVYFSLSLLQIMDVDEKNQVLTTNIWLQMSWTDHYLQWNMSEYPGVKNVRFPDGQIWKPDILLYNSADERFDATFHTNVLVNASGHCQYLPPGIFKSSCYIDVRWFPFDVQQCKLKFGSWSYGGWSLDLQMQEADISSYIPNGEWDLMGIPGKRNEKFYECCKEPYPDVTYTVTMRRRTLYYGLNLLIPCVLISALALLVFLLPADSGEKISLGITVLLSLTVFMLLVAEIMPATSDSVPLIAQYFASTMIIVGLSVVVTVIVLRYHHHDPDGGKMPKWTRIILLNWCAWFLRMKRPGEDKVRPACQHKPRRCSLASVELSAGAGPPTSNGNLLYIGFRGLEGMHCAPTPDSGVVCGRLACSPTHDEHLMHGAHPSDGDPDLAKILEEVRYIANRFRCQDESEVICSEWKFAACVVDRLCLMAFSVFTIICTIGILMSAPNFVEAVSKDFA

Compound: c1cncc([C@@H]2CCCCN2)c1 [ANABASINE]
- Ki [1]: 390 nM
- EC50 [2]: 18000 nM
- LD50 [3]: 16 mg/kg

Compound: CC[C@@H](C)C[C@@H](C)/C=C(C)/C=C/C=C/C(=O)c1c(O)c(C2(O)CCC(O)CC2)cn(O)c1=O (stereo partly specified)
- Activity [4]: 80%
- Activity [5]: 70%
- Activity [6]: 30%

Compound: O=C(O)c1ccccn1
- inhibition [7]: 83%
- inhibition [8]: 55%

Compound: O=C(O)[C@H]1CCCC[C@@H]1c1c[nH]c(=O)cc1O
- inhibition [9]: 57.5%

Compound: COC(=O)c1cncc2c1C[C@H](O)[C@@H]2C
- inhibition [10]: 90%
- inhibition [11]: 45%

Compound: O=c1c(O)ccc2n1CC1CNC2C1 (stereo unspecified)
- Ki [12]: 14000 nM
- Ki [13]: 260000 nM

Compound: C=Cc1cncc2c1CCOC2=O
- Activity [14]: 88%
- Activity [15]: 80%
- LD50 [16]: 276 mg/kg
- Activity [17]: 150%
- Activity [18]: 80%
- Activity [19]: 60%
- Activity [20]: 60%
- Activity [21]: 70%

Compound: Clc1ccc(C2CC3CCC2N3)cn1 (stereo in doubt; (+))
- ED50 [22]: 1100 nM
- inhibition [23]: 70%
- ED50 [24]: 19 nM
- Kapp [25]: 1.6 µM
- ED50 [26]: 1600 nM
- Kapp [27]: 6.9 µM
- ED50 [28]: 17 nM
- inhibition [29]: 98%

Compound: C=CC1C2C=C(CO)CC1(N)c1ccc(=O)[nH]c1C2 (stereo unspecified)
- IC50 [30]: 23900 nM

Compound: C1=CC[C@H](c2cccnc2)NC1
- Imax [31]: 25%
